Laboratory results reported in patent US20240041804A1, “NHE-1 INHIBITORS FOR THE TREATMENT OF CORONAVIRUS INFECTIONS” (priority 2020, published 2024).
“Also recorded” adds a separate entry of the source. Like-named read-outs stand apart in the source and are kept apart here.

How the values were obtained:
[1] = molecular target: SARS-CoV envelope protein ion channels (SARS-CoV E protein) (Severe acute respiratory syndrome coronavirus, UniProt P59637); conditions: cited from earlier work
LPS induced lung injury = conditions: amiloride pretreatment 10 mg/kg intravenous injection, rats; cited from earlier work
[2] = test system: store-operated calcium entry (SOCE); test: Store-operated calcium entry (45Ca2+ accumulation) in myotubes; type: cell-based
NHE-1 = molecular target: T1, NHE-1 (Mus musculus, UniProt Q61165); test: 22Na+ influx in myotube cultures; type: cell-based
T1 construct: time-course of ^22Na^+ influx studied in wild type and dystrophic myotube cultures; endogenous in cells; host or cells: primary wild type and dystrophic myotubes

human platelet swelling = test: In vitro platelet swelling assay with human platelet rich plasma; type: cell-based; conditions: OD 680 nm, pH 6.6, read-out: IC50 of inhibition of platelet swelling (+SEM)
platelet swelling [3] = test: Ex vivo platelet swelling, Eniporide phase I studies in healthy subjects; design: species or system human
male mdx mice [4] = test: Cathepsin enzyme activity by optical imaging (skeletal muscle inflammation) in mdx mice; type: in vivo, mouse; conditions: 400 ppm Rimeporide in food, 5 weeks
male mdx mice [5] = test: Ex vivo H&E histopathology of diaphragm inflammation in mdx mice; design: species or system mouse; conditions: 400 ppm Rimeporide
platelet swelling [6] = test: Ex vivo platelet swelling, Rimeporide single oral ascending dose study; type: in vivo, human; conditions: single oral dose 300 to 600 mg, healthy male volunteers
platelet swelling [7] = test: Ex vivo platelet swelling, Rimeporide multiple ascending dose study; type: in vivo, human; conditions: day 3, multiple ascending dose study
[8] = molecular target: T2, sodium-hydrogen exchange activity (NHE-1) (Rattus norvegicus, UniProt P26431); test: NHE activity (BCECF) in rat pulmonary arterial smooth muscle cells; type: cell-based; conditions: PASMCs of Su/Hx pulmonary hypertension rats, 10^-6 to 10^-4 M
T2 construct: performed in rat PASMCs in vitro of both Normoxic and Su/Hx pulmonary hypertension (PH) rats; endogenous in cells; host or cells: primary rat PASMCs from normoxic and Su/Hx pulmonary hypertension rats

Su/Hx rat model of PAH [9] = test: Su/Hx rat model of PAH: echocardiography; type: in vivo; conditions: 100 mg/kg/day in drinking water week 5-8; Su/Hx+Rime vs Su/Hx, week 8
Su/Hx rat model of PAH [10] = test: Su/Hx rat model of PAH: invasive hemodynamic monitoring; type: in vivo; conditions: 100 mg/kg/day in drinking water week 5-8; Su/Hx+Rime vs Su/Hx, week 8
Su/Hx rat model of PAH [11] = test: Su/Hx rat model of PAH: right ventricle hypertrophy and fibrosis; type: in vivo; conditions: 100 mg/kg/day in drinking water week 5-8; Su/Hx+Rime vs Su/Hx, week 8
Su/Hx rat model of PAH [12] = test: Su/Hx rat model of PAH: pulmonary vascular fibrosis (Masson trichome); type: in vivo; conditions: 100 mg/kg/day in drinking water week 5-8; Su/Hx+Rime vs Su/Hx, week 8
Su/Hx rat model of PAH [13] = test: Su/Hx rat model of PAH: lung inflammation (CD68); type: in vivo; conditions: 100 mg/kg/day in drinking water week 5-8; Su/Hx+Rime vs Su/Hx, week 8
[14] = test system: rat model of heart failure; test: Rat model of heart failure after myocardial infarction (permanent left coronary artery ligation); type: in vivo
[15] = test system: rat model of myocardial infarction; test: Rat model of myocardial infarction (30 min occlusion, 90 min reperfusion); type: in vivo; conditions: prophylactic, 0.01 to 1 mg/kg intravenously and 0.1 to 1 mg/kg per os
[16] = test system: pigs of myocardial infarction; test: Anesthetized open-chest pig model of myocardial infarction; type: in vivo; conditions: 1 mg/kg iv before occlusion, 7 mg/kg iv before reperfusion
dystrophic, mdx mice = test: Fibrosis in heart and diaphragm of mdx mice; type: in vivo, mouse; conditions: given in a preventive manner
[17] = single oral dose
[18] = test system: plasma circulating biomarkers (CCL15, KLK6, FAS, TNFα, MCP-1/CCL2); design: Term, TNFα: unit not given here; conditions: DMD patients, 4-week oral treatment, cited from earlier work

T1 sequence (Q61165 whole entry): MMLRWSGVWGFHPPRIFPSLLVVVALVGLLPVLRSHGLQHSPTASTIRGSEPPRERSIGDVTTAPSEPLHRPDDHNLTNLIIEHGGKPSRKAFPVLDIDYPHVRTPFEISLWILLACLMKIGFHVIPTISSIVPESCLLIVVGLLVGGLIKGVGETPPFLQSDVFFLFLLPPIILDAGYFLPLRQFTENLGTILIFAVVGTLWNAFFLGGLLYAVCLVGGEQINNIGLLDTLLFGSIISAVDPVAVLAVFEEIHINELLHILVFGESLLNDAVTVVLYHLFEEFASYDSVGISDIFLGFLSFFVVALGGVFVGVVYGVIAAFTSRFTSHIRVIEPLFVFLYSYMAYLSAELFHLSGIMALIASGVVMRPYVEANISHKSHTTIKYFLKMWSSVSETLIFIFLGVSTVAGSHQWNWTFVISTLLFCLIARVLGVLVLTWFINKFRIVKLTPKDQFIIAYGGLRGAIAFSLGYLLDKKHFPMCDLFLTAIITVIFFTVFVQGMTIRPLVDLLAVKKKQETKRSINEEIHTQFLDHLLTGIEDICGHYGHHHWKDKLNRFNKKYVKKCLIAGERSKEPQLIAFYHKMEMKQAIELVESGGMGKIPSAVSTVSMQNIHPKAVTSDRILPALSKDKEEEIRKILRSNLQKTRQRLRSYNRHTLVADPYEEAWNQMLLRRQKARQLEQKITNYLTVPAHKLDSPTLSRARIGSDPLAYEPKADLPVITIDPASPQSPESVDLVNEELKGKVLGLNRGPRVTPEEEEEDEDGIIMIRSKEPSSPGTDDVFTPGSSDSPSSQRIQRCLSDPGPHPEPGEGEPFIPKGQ
Chain of SARS-CoV envelope protein ion channels (SARS-CoV E protein) (P59637 whole entry, looked up): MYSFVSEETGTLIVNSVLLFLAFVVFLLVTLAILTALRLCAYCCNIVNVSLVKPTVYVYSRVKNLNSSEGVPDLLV
T2 sequence (P26431 whole entry): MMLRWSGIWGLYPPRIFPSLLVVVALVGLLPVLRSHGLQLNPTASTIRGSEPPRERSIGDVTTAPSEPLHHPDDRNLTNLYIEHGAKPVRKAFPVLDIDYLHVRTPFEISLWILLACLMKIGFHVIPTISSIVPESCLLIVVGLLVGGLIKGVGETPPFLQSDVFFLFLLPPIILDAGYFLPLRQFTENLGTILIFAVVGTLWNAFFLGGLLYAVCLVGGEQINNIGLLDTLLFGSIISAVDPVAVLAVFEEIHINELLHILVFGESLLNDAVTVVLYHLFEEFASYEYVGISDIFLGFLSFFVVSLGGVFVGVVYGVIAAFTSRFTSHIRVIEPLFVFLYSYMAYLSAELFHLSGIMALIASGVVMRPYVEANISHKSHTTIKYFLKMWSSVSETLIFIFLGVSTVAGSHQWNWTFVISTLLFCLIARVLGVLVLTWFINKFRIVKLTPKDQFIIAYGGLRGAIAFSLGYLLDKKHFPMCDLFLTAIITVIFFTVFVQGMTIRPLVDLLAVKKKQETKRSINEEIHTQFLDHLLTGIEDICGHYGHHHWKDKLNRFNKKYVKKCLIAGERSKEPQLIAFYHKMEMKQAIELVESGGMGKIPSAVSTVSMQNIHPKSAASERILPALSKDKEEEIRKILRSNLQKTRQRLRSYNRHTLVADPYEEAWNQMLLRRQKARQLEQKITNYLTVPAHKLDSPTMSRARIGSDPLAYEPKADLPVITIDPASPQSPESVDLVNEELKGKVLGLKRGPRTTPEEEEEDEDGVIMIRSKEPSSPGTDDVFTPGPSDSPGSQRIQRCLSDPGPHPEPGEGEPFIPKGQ

SMILES: NC(N)=NC(=O)c1nc(Cl)c(N)nc1N [Amiloride, 3,5-Diamino-N-carbamimidoyl-6-chlorpyrazin-2-carbamid]
- effect on activity of E-proteins (ion channel) [1]: quasi-ineffective
- LPS induced lung injury (LPS induced lung injury): significantly inhibited

SMILES: Cc1nnsc1C(=O)Nc1ccc(-n2nc(C(F)(F)F)cc2C(F)(F)F)cc1 [BTP-2, reference compound]
- effect on store-operated calcium entry (SOCE) [2]: abolished
- inhibition of Ca2+ flux (SOCE protocol) ([2]; 10 μM): almost complete inhibition

SMILES: N=C(N)NC(=O)c1cnn(-c2cccc3ncccc23)c1C1CC1 [Zoniporide, reference compound]
- comparison of NHE inhibitors on 22Na+ fluxes (rank order) (NHE-1; myotubes): Zoniporide>Cariporide, EIPA>Rimeporide
- comparison of NHE inhibitors on SOCE (rank order) [2]: Zoniporide>Cariporide, EIPA>Rimeporide

SMILES: Cc1cc(-n2cccc2)c(S(C)(=O)=O)cc1C(=O)NC(=N)N [Eniporide, N-(diaminomethylidene)-2-methyl-5-methylsulfonyl-4-pyrrol-1-ylbenzamide]
- IC50 (human platelet swelling): 30 nM
- inhibition of platelet swelling immediately post dosing (platelet swelling [3]; 50 mg and above, intravenous): total inhibition
- inhibitory activity on platelet swelling (platelet swelling [3]; 2 times 200 mg as an infusion, 6 hours post first dose): 80%
- inhibitory activity on platelet swelling remaining (platelet swelling [3]; 1.5 hours post dose, doses 100-200 mg): More than 80%
- inhibitory activity on platelet swelling remaining (platelet swelling [3]; 3 hours post dose, doses 250-400 mg): More than 80%
- dose from which platelet swelling was reduced (platelet swelling [3]; healthy subjects, single intravenous dose): ≥ 5 mg
- effect on platelet aggregation (platelet aggregation; human, in vivo): No clinically relevant effect
- effects on PT or APTT (human, in vivo): no clinically relevant effects

SMILES: NC(N)=NC(=O)c1nc(Cl)c(N2CCCCCC2)nc1N [HMA, 5-N, N-(hexamethylene)amiloride]
- effect on activity of E-proteins (ion channel) [1]: significantly reduced activity of E-proteins

SMILES: CC(C)c1ccc(C(=O)NC(=N)N)cc1S(C)(=O)=O [Cariporide, N-(Diaminomethylidene)-3-methanesulfonyl-4-(propan-2-yl) benzamide]
- comparison of NHE inhibitors on 22Na+ fluxes (rank order) (NHE-1): Zoniporide>Cariporide, EIPA>Rimeporide
- comparison of NHE inhibitors on SOCE (rank order) [2]: Zoniporide>Cariporide, EIPA>Rimeporide
- IC50 (human platelet swelling): 166 nM

SMILES: CCN(c1nc(N)c(C(=O)N=C(N)N)nc1Cl)C(C)C [EIPA, 5-(N-ethyl-N-isopropyl)amiloride, reference compound]
- comparison of NHE inhibitors on 22Na+ fluxes (rank order) (NHE-1; myotubes): Zoniporide>Cariporide, EIPA>Rimeporide
- comparison of NHE inhibitors on SOCE (rank order) ([2]; myotubes): Zoniporide>Cariporide, EIPA>Rimeporide

SMILES: NC1=N[C@H](O)[C@H]2[C@H]3O[C@]4(O)O[C@@H]([C@@H](O)[C@@]2(N1)[C@@H]4O)[C@]3(O)CO [tetrodotoxin]
- further decrease of 22Na+ influx (NHE-1): around 8%

SMILES: Cc1cc(S(C)(=O)=O)c(S(C)(=O)=O)cc1C(=O)NC(=N)N [Rimeporide, N-(4,5-bismethanesulfonyl-2-methylbenzoyl)guanidine]
- reduction in Cathepsin B activity, forelimb (male mdx mice [4]; forelimb): −26%
- reduction in Cathepsin B activity, hindlimb (male mdx mice [4]; hindlimb): −22%
- reduction in inflammation in the diaphragm (H&E) relative to vehicle (male mdx mice [5]): 44%
- inhibition at 100 µM (NHE-1; 100 μM, after 10 to 20 min of influx, myotube cultures, read-out: inhibition of 22Na+ accumulation / Na+ influx): ~40%
- comparison of NHE inhibitors on 22Na+ fluxes (rank order) (NHE-1; myotubes): weakest inhibitor
- effect on 22Na+ accumulation (NHE-1; pretreatment 1-100 μM, normal and dystrophic myotubes): dose-dependent inhibition
- effect on store-operated calcium entry (SOCE) [2]: inhibition of SOCE; also recorded: dose-dependently prevented SOCE
- concentration giving strong SOCE inhibition reaching basal levels ([2]; dystrophic myotubes): 30 µM
- lowest concentration with statistical differences in SOCE inhibition ([2]; dystrophic myotubes): 3 µM
- comparison of NHE inhibitors on SOCE (rank order) ([2]; myotubes): weakest inhibitor
- IC50 (human platelet swelling): 455 nM
- rate constant of platelet swelling reaction post-dose vs pre-dose (platelet swelling [6]): post-dose decrease in rate constant was consistently observed
- subjects with some evidence of platelet swelling inhibition (platelet swelling [7]): 67%
- effect on NHE activity in PASMCs [8]: inhibits NHE activity in the PASMCs in a dose-dependent manner
- Mean Pulmonary Arterial Pressure (mPAP) (Su/Hx rat model of PAH [9]): significantly lower mPAP
- Pulmonary Artery Acceleration Time/Ejection Time (PA AT/ET) (Su/Hx rat model of PAH [9]): significantly higher PA AT/ET ratio
- RV cardiac output (CO) (Su/Hx rat model of PAH [9]): significantly higher RV CO
- RV free wall thickness (Su/Hx rat model of PAH [9]): significantly lower RV free wall thickness
- RV internal diameter at diastole (Su/Hx rat model of PAH [9]): significantly lower RV internal diameter
- RV End Diastolic Pressure (EDP) (Su/Hx rat model of PAH [10]): significantly lower pressure
- RV Tau (Su/Hx rat model of PAH [10]): significantly lower Tau
- RV systolic pressure (Su/Hx rat model of PAH [10]): significantly lower pressure
- RV fibrosis (Sirius Red) (Su/Hx rat model of PAH [11]): significantly lower fibrosis
- Right Ventricle/Left Ventricle+Septum (RV/LV+S) weight ratio (Su/Hx rat model of PAH [11]): no statistically significant difference
- pulmonary vascular fibrosis (Su/Hx rat model of PAH [12]): significantly lower fibrosis
- percentage of CD68+ cells relative to total nuclei in lung tissue (Su/Hx rat model of PAH [13]): significantly lower
- myocardial hypertrophy and left ventricular function [14]: significantly and dose dependently reduce myocardial hypertrophy and preserve left ventricular function
- survival [14]: substantial improvement in survival
- infarct size [15]: reduce dose dependent infarct size
- infarct size [16]: decrease infarct size
- fibrosis in the heart and the diaphragm (dystrophic, mdx mice): antifibrotic effect
- plasma concentration, Subject 15 ([17]; 1 hour post-dose): 159 ng/mL
- plasma concentration, Subject 15 ([17]; 3 hours post-dose): 3690 ng/mL
- effect on platelet aggregation (platelet aggregation; Rimeporide single oral dose, 10 μM ADP, 3, 24 and 48 hours post-dose): no evidence of inhibition of platelet aggregation
- effects on PT and APTT (Rimeporide single oral dose study): No effects
- Term, TNFα ([18]; Luminex): −0.1726
- Term, CCL15 ([18]; OLink): −0.4489
- Term, FAS ([18]; OLink): −0.2823
- Term, KLK6 ([18]; OLink): −0.2612
- Term, MCP-1/CCL2 ([18]; OLink): −0.5675
